Experimental data as given in patent publication US5910575A, “Immunoassay and monoclonal antibodies for urinary cortisol” (Immunotech, priority 1995, dated 1999).

Columns and labels:
[1] = target: anti-cortisol monoclonal antibody Immu 473 (IMMU-473, CNCM I-1532), obtained against the immunogen cortisol-3-CMO (syn)-BSA; assay: Displacement of the cortisol-3-CMO (anti)-[125I] iodohistamine tracer from the monoclonal antibody (liquid phase radioimmunoassay); type: binding, mouse
Procedure: (§1) Selection is carried out by a liquid phase radioimmunoassay technique starting with the culture supernatant. The supernatants possibly containing anti-cortisol antibodies are incubated with a solution of radioactive cortisol (tritiated cortisol or cortisol derivative labelled with radioactive iodine: cortisol-3-CMO (anti)-[^125 I] iodohistamine). If anti-cortisol antibodies are present, they will bind the radioactive steroid. After incubation with charcoal-dextran and centrifugation to remove the free radioactivity and all the small molecules not fixed to the antibodies, a sample of the supernatant (bound fraction) is removed and counted.
(§2) The affinities of the monoclonal antibodies are measured by displacement of the cortisol-3-CMO (anti)-[^125 I] iodohistamine tracer with the two labelling precursors: cortisol-3-CMO (anti)-histamine and cortisol-3-CMO (syn)-histamine. The affinity is estimated (in the form of the IC50 value) according to the concentration displacing half of the tracer, since the tracer is present in a small quantity compared with the other constituents.

[2] = target: anti-cortisol monoclonal antibody Immu 482, obtained against the immunogen cortisol-3-CMO (syn)-BSA; assay: as above; type: binding, mouse
Procedure: as §1, §2

[3] = tracer cortisol-3-CMO (anti)-[125I] iodohistamine, concentration displacing half of the tracer
[4] = IC50 of cortisol-3-CMO (anti)-histamine divided by IC50 of cortisol-3-CMO (syn)-histamine

Row | SMILES | Displacement of the tracer by Cortisol-3-CMO (anti)-histamine IC50 [1, 3] [ng/mL] | Displacement of the tracer by Cortisol-3-CMO (anti)-histamine IC50 [2, 3] [ng/mL] | Ratio IC50 anti/IC50 syn [1, 4] | Displacement of the tracer by Cortisol-3-CMO (syn)-histamine IC50 [1, 3] [ng/mL] | Ratio IC50 anti/IC50 syn [2, 4] | Displacement of the tracer by Cortisol-3-CMO (syn)-histamine IC50 [2, 3] [ng/mL]
1 | C[C@]12CC/C(=N\OCC(=O)NCCc3c[nH]cn3)C=C1CC[C@@H]1[C@@H]2[C@@H](O)C[C@@]2(C)[C@H]1CC[C@]2(O)C(=O)CO [Cortisol-3-CMO (anti)-histamine, cortisol-3-carboxymethyloxime (anti)-histamine] | 0.496 | 0.468 |  |  |  | 
2 | C[C@]12CC/C(=N/OCC(=O)NCCc3c[nH]cn3)C=C1CC[C@@H]1[C@@H]2[C@@H](O)C[C@@]2(C)[C@H]1CC[C@]2(O)C(=O)CO [Cortisol-3-CMO (syn)-histamine, cortisol-3-carboxymethyloxime (syn)-histamine] |  |  | 2.73 | 0.182 | 2.66 | 0.176
